Measured values as given in US7572814B2, “3,5-dibenzoyl-4-phenyl-piperidine anti-cancer compounds” (Cytokinetics, Incorporated, priority 2005, dated 2009).

Key:
[1] = system: A549 cells; details: data provided by National Cancer Institute; cited from earlier work
[2] = system: SKOV-3 human ovarian carcinoma; experiment: Tumor growth delay (TGD) study, established SKOV-3 tumors in athymic nude mice; assay type: in vivo; details: 30 mg/kg i.v. qod×5
Experimental: Certain of the chemical entities described herein were evaluated for in vivo activity against SKOV-3 human ovarian carcinoma in a tumor growth delay (TGD) study. The study utilized eight groups (n=8) of athymic nude mice bearing established (63-144 mm3) SKOV-3 tumors on Day 1, and included a vehicle-treated tumor growth control group and a reference group treated with paclitaxel (30 mg/kg i.v. qod×5). A first chemical entity was evaluated at doses of 300 or 150 mg/kg administered intraperitoneally (i.p.) once daily and at 150 mg/kg administered i.p. twice daily. Doses were administered on study days 1 to 5 and 8 to 12. Tumors were measured twice weekly during the 60-day study. Each animal was euthanized when its tumor reached the endpoint volume of 1500 mm3 or on Day 60, whichever came first, and the time to endpoint (TTE) was calculated for each mouse. Treatment outcome was determined from percent tumor growth delay (% TGD), defined as the percent increase in median TTE of treated versus control mice, with differences in TTE values deemed significant at P □0.05 using logrank analysis. The results presented were calculated based on data acquired through day 33 of the study. The median TTE of the untreated control group was 20.8 days.
A second chemical entity was similarly evaluated at 500 mg/kg administered i.p. once daily.

O=c1[nH]cc(F)c(=O)[nH]1 [5-fluorouracil]
GI50 [1]: 1000 nM

NC(=O)NO [hydroxyurea]
GI50 [1]: 500000 nM

COc1cccc2c1C(=O)c1c(O)c3c(c(O)c1C2=O)C[C@@](O)(C(=O)CO)C[C@@H]3O[C@H]1C[C@H](N)[C@H](O)[C@H](C)O1 [doxorubicin]
GI50 [1]: 63 nM

CC(=O)O[C@H]1C(=O)[C@@]2(C)[C@H]([C@H](OC(=O)c3ccccc3)[C@]3(O)C[C@H](OC(=O)[C@H](O)[C@@H](NC(=O)c4ccccc4)c4ccccc4)C(C)=C1C3(C)C)[C@]1(OC(C)=O)CO[C@@H]1C[C@@H]2O [paclitaxel]
GI50 [1]: 4 nM
percent tumor growth delay (% TGD) ([2]; data through day 33, statistically significant): 58%
tumor growth delay (T-C) ([2]; maximum possible in this study, untreated control median TTE 20.8 days): 12.2 days
